Key:
[1] = tested on: HO-1; test: HO-1 expression in H9c2 cardiomyocytes (RT-PCR, Western blot); type: cell-based, rat
Description: (§1) Immortalized triple negative breast cancer cell lines MDA-MB-231 and BT549 were obtained from ATCC (Rockville, Md.). Additionally, the h9c2 cell line was purchased from ATCC (Rockville, Md.). […] Human iPSC-derived cardiomyocytes were maintained in Mtesr plus and supplemented according to protocol. These cells were treated for 2 hrs or an overnight as indicated. Following a 2 hr pretreatment, cells were co-treated with DOX at indicated concentrations for 6 or 22 hours. Following the overnight treatments, RNA or protein was isolated. HPH were seeded in collagen-coated 24 well plates and pretreated for 24 hrs. BT549 were seeded on inverted coverslips. After a 24 hr pretreatment, hepatocytes were co-administered as indicated and coverslips were inserted. The cell lines were used for less than 60 passages. After 24 h treatment, HPH, BT549, MDA-MB-231, and H9c2 cells were washed and a phenol-chloroform extraction was used to isolate total RNA with the TRIzol reagent (ThermoFisher, Rockford, Ill.). Reverse transcription was performed on extracted RNA (1 μg) to produce cDNA using the High Capacity cDNA Archive kit according to manufacturer's instructions (Applied Biosystems, Foster, Calif.). PCR was performed on an ABI StepOnePlus Real-Time PCR system (Applied Biosystems) using Fast SYBR Green Master Mix (Thermofisher, Rockford, Ill.) to determine gene expression changes. Primer sequences for CYP2B6, CYP3A4, HO-1, and glyceraldehyde-3-phosphate dehydrogenase (GAPDH) are: CYP2B6, [NT] ID NO: 1) and [NT] ID NO: 2); CYP3A4, [NT] ID NO: 3) and [NT] ID NO: 4); HO-1 [NT] ID NO: 5) and [NT] ID NO: 6) GAPDH, [NT] ID NO: 7) and [NT] ID NO: 8). Quantification of expression changes was done by the 2^ΔΔCt method, normalizing to GAPDH as the housekeeping gene and determining the fold change compared to control values (n=3). Protein was harvested using cell lysis buffer (Cell Signaling Technology, Danvers, Mass.) with a complete protease inhibitor cocktail (Roche, Mannheim, Germany) prior to homogenizing via sonification. […]

[2] = tested on: HO-1; test: HO-1 expression in BT549 cells; type: cell-based; conditions: BT549, 10 μM, 24 hours
Description: as §1, with “PCR was performed on an ABI StepOnePlus Real-Time PCR system (Applied Biosystems) using Fast SYBR Green Master Mix (Thermofisher, Rockford, Ill.) to determine gene expression changes. Primer sequences for CYP2B6, CYP3A4, HO-1, and glyceraldehyde-3-phosphate dehydrogenase (GAPDH) are: CYP2B6, [NT] ID NO: 1) and [NT] ID NO: 2); CYP3A4, [NT] ID NO: 3) and [NT] ID NO: 4); HO-1 [NT] ID NO: 5) and [NT] ID NO: 6) GAPDH, [NT] ID NO: 7) and [NT] ID NO: 8).” left out, “(n=3).” for “(n=3). Protein was harvested using cell lysis buffer (Cell Signaling Technology, Danvers, Mass.) with a complete protease inhibitor cocktail (Roche, Mannheim, Germany) prior to homogenizing via sonification.”

[3] = tested on: H9c2 cells; test: Cell viability assay, DOX-induced toxicity in H9c2 cells; type: cell-based, rat
Description: H9c2 cells were seeded 0.8×10^5 in 24-well plates. Following cell attachment, a 2 h pre-treatment with vehicle control (0.1% DMSO), SFN (2.5 μM) or DL7076 (1 μM, 5 μM, or 10 μM) was done followed by doxorubicin (2.5 μM) exposure for 22 h. Co-culture cells were assembled and treated with cyclophosphamide and doxorubicin as indicated. A Cell Counting Kit-8 (Enzo) assay was carried out. Cell viability was described as a percent of vehicle control (0.1% DMSO). Cardiomyocyte, human iPSC-derived cardiomyocytes, and BT549 viability was determined with a 1 hr incubation of 6% CCK8 in WEM.

[4] = tested on: HO-1; test: HO-1 expression in human iPSC-derived cardiomyocytes; type: cell-based; conditions: human iPSC-derived cardiomyocytes, 1, 5, 10 μM
Description: Immortalized triple negative breast cancer cell lines MDA-MB-231 and BT549 were obtained from ATCC (Rockville, Md.). Additionally, the h9c2 cell line was purchased from ATCC (Rockville, Md.). […] Human iPSC-derived cardiomyocytes were maintained in Mtesr plus and supplemented according to protocol. These cells were treated for 2 hrs or an overnight as indicated. Following a 2 hr pretreatment, cells were co-treated with DOX at indicated concentrations for 6 or 22 hours. Following the overnight treatments, RNA or protein was isolated. HPH were seeded in collagen-coated 24 well plates and pretreated for 24 hrs. BT549 were seeded on inverted coverslips. After a 24 hr pretreatment, hepatocytes were co-administered as indicated and coverslips were inserted. The cell lines were used for less than 60 passages. After 24 h treatment, HPH, BT549, MDA-MB-231, and H9c2 cells were washed and a phenol-chloroform extraction was used to isolate total RNA with the TRIzol reagent (ThermoFisher, Rockford, Ill.). Reverse transcription was performed on extracted RNA (1 μg) to produce cDNA using the High Capacity cDNA Archive kit according to manufacturer's instructions (Applied Biosystems, Foster, Calif.). […] Quantification of expression changes was done by the 2^ΔΔCt method, normalizing to GAPDH as the housekeeping gene and determining the fold change compared to control values (n=3).

[5] = tested on: H9c2 cells; test: Oxidative stress imaging (DFDA) in H9c2 cells; type: cell-based, rat; conditions: H9c2, DL7076 5 μM, 2-hour pretreatment and 6-hour cotreatment with DOX
Description: H9c2 rat cardiomyocytes seeded at 0.8×10^5 in 24-well plates. […] Cells were washed 3× with PBS. Subsequently, 0.5 mL of WEM containing 20 μM 2'-7'-dichlorofluorescein diacetate (DFDA) was added to each well. The cells were incubated at 37° C. and 5% CO2 for 30 min. The oxidation of DFDA to the fluorescent dichlorofluorescein was viewed using fluorescence microscopy (Nikon Eclipse Ti) with a FITC filter at […] and quantified using Brightspot detection for fluorescent detection of triplicate images and normalized to the vehicle control (0.1% DMSO). Cells on coverslips from co-culture experiments were fixed using 4% paraformaldehyde and permealized using Triton-X 100. A primary antibody for mouse anti-phospho-H2AX ([…]) was incubated overnight. Goat anti-mouse IgG Fluor Alexa 488 (1:200) was incubated for 2 hrs. Phosphorylation was calculated through fluorescence intensity all normalized to the vehicle control.

For `O=C(NCCN=C=S)c1c(-c2ccc3ccccc3c2)nc2sccn12` [DL7076, N-(2-Isothiocyanatoethyl)-6-(naphthalen-2-yl)imidazo[2,1-b]thiazole-5-carboxamide], the “HO-1 mRNA induction” value ([1]; H9c2, 10 μM, 24 hours, vs vehicle control) was 3- to 3.5 fold, the HO-1 protein induction ([1]; H9c2, Western blot) was “robust induction in the expression of HO-1 was confirmed at a protein level” and the “HO-1 protein expression in the presence of DOX” value ([1]; H9c2, pretreatment, DOX 2.5 μM) was “concentration dependent protection in the expression of HO-1”. The HO-1 induction [2] was 1.5 fold, the “cytotoxicity without DOX” value ([3]; H9c2, 1, 5, 10 μM) was “no cytotoxicity” and the “reversal of DOX-induced cardiotoxicity (viability)” value ([3]; H9c2, 2 h pretreatment, 22 h cotreatment with DOX 2.5 μM) was “concentration dependent reversal in the DOX-induced cardiotoxicity”. For the same compound, the HO-1 expression [4] was “concentration-dependently induced” and the “ROS (fluorescence intensity) with cotreatment” value [5] was “significantly reduced ROS”.

Source: patent US20230134760A1, “CAR AND NRF2 DUAL ACTIVATOR AGENTS FOR CYCLOPHOSPHAMIDE-BASED AND DOXORUBICIN-BASED TREATMENTS OF CANCER” (priority 2020, published 2023)
